Publication PMC9232501, “Results of the phase I CCTG IND.231 trial of CX-5461 in patients with advanced solid tumors enriched for DNA-repair deficiencies” (Nature Communications, 2022)
Where “and” joins values, the source holds several entries; their conditions need not be identical. Identical values can stand only once. Entries after “also recorded” stand apart in the source; their conditions may differ.

How the values were obtained:
[1] = system: WT HAP1 cells; assay: HAP1 WT cytotoxicity (WST-1 assay) with and without UVA; type: cell-based; details: for WST-1 raw signal (Figure 5h): replicates
Description: Fig. 5 Comparison of G4 ligand photosensitization. […] Vertical axis, fractional survival, horizontal axis log10 drug concentration (M) (f) Representative images of CPD immunofluorescent staining under UV and drug treatment conditions for U2OS cells, quantified from biological duplicates in (g) (h) Scale bar = 100um. U2OS cells were treated with drug or vehicle control, then immediately irradiated with UVA 125 mJ/cm^2; and fixed 1 h later for immunofluorescence staining with CPD antibody. g Distribution of mean intensity of CPD level per cell (total n = in labels), with two biological repeats per condition. Vertical axis, mean CPD intensity per cell, horizontal axis, conditions (h) WT or KO XPA HAP1 cells assayed for cytotoxicity. Vertical axis, fractional survival (WST-1 assay). The horizontal axis, log10 drug concentration (M). Error bars = standard deviation of the mean. Three biological repeats per condition.
(§1) Human epidermal keratinocytes (HEKa) cells were sourced from Thermo Fisher Scientific, and were grown in EpiLife™ Medium with HKGS. HAP WT and XPA knockout cell lines (Horizon Discovery) were cultured in IMDM, 10% FCS. Human HCT116 cells, U2OS cells (ATCC) were grown in McCoy’s 5 A medium with 10% FBS and L-glutamine. All cell lines are mycoplasma free and have been authenticated by STR or SNP profiling. CX-5461 was provided by Senhwa Biosciences, Inc. PDS is from Sigma-Aldrich, BRACO-19 from Alfa Chemistry, PhENDC3 is from Sigma-Aldrich, γ -H2AX antibody from Abcam (1:1000 for IF) and CPD antibody (1:1500) from Cosmo Bio Ltd. (Catalog number: CAC-NM-DAD-001). The WST-1 assay was performed as previously described, γ H2AX foci staining was performed as previously described. Immunofluorescence staining of CPD was performed according to the protocol from the manufacturer (Cosmo Bio Ltd).

[2] = system: advanced solid tumors; assay: Efficacy assessment by RECIST 1.1 (best response, ORR, DCR, duration of response); type: in vivo, human; parameters: partial_response_date (time at which PR was documented) / bestchange (best change of target lesions, Figure 3): unit not given here; details: for bestchange (best change of target lesions, Figure 3): one value per patient; for time_on_study: individual patients
Description: Computed tomography of chest, abdomen, and pelvis was performed at baseline and every 8 weeks and as clinically indicated. All patients who had at least one post-baseline scan were included in efficacy analyses; patients with the non-target disease only were assessed for non-CR/non-PD and PD. Patients were evaluated for CR, PR, SD, or PD as defined by RECIST 1.1[23]. The objective response rate (ORR = CR+PR) and disease control rate (DCR = CR + PR + SD ≥ 6 months) are reported. Duration of response was defined as the time from when CR or PR was first documented until the first date that progressive disease was objectively documented or the time of the last disease assessment.

[3] = system: γ-H2AX (double-stranded DNA breaks); assay: γ-H2AX immunofluorescent staining with and without UVA radiation; type: cell-based; details: CX5461 10^-8M, 5x10-8M; PDS 20 x 10^-6M
Description: as §1
Supplementary Figures and Tables
Supplementary Figure 1. UVA radiation increased double-stranded DNA breaks and ROS.
Representative pictures of g -H2AX immunofluorescent staining with and without UVA radiation, for […]
condition, quantified in (b) Quantile and mean intensity of g-H2AX level per cell, vertical axis. UV and drug factor conditions, horizontal axis. […] Number of cells as in Figure 5 g (c) The ratio of ROS level measured after UVA irradiation versus before UVA irradiation was calculated. […]

[4] = system: patients with hematologic malignancies; parameters: method as in PMID 31092402; details: cited from earlier work
[5] = BRCA1/2, PALB2 or TP53 germline or somatic mutations
[6] = BRCA1/2 or PALB2 germline or somatic mutations
[7] = dose_level 2, Breast, patient 400006
[8] = dose_level 4, Ovarian, patient 400035
[9] = dose_level 8, Breast, patient 400012
[10] = dose_level 9, Breast, patient 400030

SMILES: Cc1cnc(CNC(=O)c2c(=O)c3ccc(N4CCCN(C)CC4)nc3n3c2sc2ccccc23)cn1 [CX-5461]
- WST-1 raw signal (Figure 5h) ([1]; conc 1.00E-07, 125 mJ/cm2 WT): 0.124 and 0.1238
- WST-1 raw signal (Figure 5h) ([1]; conc 1.00E-07, WT No UV): 0.1248 and 0.1255
- WST-1 raw signal (Figure 5h) ([1]; conc 1.25E-08, 125 mJ/cm2 WT): 0.124 and 0.1239
- WST-1 raw signal (Figure 5h) ([1]; conc 1.25E-08, WT No UV): 2.9461 and 2.8715
- WST-1 raw signal (Figure 5h) ([1]; conc 1.56E-09, 125 mJ/cm2 WT): 1.6148 and 1.5014
- WST-1 raw signal (Figure 5h) ([1]; conc 1.56E-09, WT No UV): 3.4383 and 3.4235
- WST-1 raw signal (Figure 5h) ([1]; conc 2.00E-07, 125 mJ/cm2 WT): 0.1302 and 0.1263
- WST-1 raw signal (Figure 5h) ([1]; conc 2.00E-07, WT No UV): 0.1284 and 0.1271
- WST-1 raw signal (Figure 5h) ([1]; conc 2.50E-08, 125 mJ/cm2 WT): 0.1237 and 0.1243
- WST-1 raw signal (Figure 5h) ([1]; conc 2.50E-08, WT No UV): 0.7915 and 0.7888
- WST-1 raw signal (Figure 5h) ([1]; conc 3.13E-09, 125 mJ/cm2 WT): 0.139 and 0.1466
- WST-1 raw signal (Figure 5h) ([1]; conc 3.13E-09, WT No UV): 3.3417 and 3.4651
- WST-1 raw signal (Figure 5h) ([1]; conc 3.91E-10, 125 mJ/cm2 WT): 3.3908 and 3.3132
- WST-1 raw signal (Figure 5h) ([1]; conc 3.91E-10, WT No UV): 3.3655 and 3.4278
- WST-1 raw signal (Figure 5h) ([1]; conc 5.00E-08, 125 mJ/cm2 WT): 0.1258 and 0.124
- WST-1 raw signal (Figure 5h) ([1]; conc 5.00E-08, WT No UV): 0.1245 and 0.1268
- WST-1 raw signal (Figure 5h) ([1]; conc 6.25E-09, 125 mJ/cm2 WT): 0.1242 and 0.126
- WST-1 raw signal (Figure 5h) ([1]; conc 6.25E-09, WT No UV): 3.3238 and 3.2658
- WST-1 raw signal (Figure 5h) ([1]; conc 7.81E-10, 125 mJ/cm2 WT): 3.145 and 2.7907
- WST-1 raw signal (Figure 5h) ([1]; conc 7.81E-10, WT No UV): 3.4055 and 3.3833
- effect of UVA radiation on cytotoxicity ([1]; with UVA): dramatically increased the cytotoxicity
- patients with confirmed PR ([2]; 3 breast, 1 ovarian, all with germline DNA-repair abnormalities): Four
- overall DCR (CR + PR + SD ≥ 6 months) ([2]; 8/40, 95% CI: 9.1–35.7%): 20%
- Best Response Complete Response (CR), N patients ([2]; All treated patients N=40): 0
- Best Response Partial Response (PR), N patients ([2]; All treated patients N=40): 4
- Best Response Progressive Disease (PD), N patients ([2]; All treated patients N=40): 21
- Best Response Stable Disease (SD), N patients ([2]; All treated patients N=40): 11
- Response Duration Median (range), SD ([2]; All treated patients N=40, range 2.3-10.9): 3.6 Mo.
- Response Duration Median (range), PR ([2]; All treated patients N=40, range 5.5-8.2): 6.5 Mo.
- Best Response Partial Response (PR), N patients [2, 5]: 4
- Best Response Progressive Disease (PD), N patients [2, 5]: 15
- Best Response Stable Disease (SD), N patients [2, 5]: 7
- Response Duration Median (range), PR [2, 5]: 6.5 (5.5-8.2) Mo.
- Response Duration Median (range), SD [2, 5]: 3.5 (3-9.2) Mo.
- Best Response Partial Response (PR), N patients [2, 6]: 3
- Best Response Progressive Disease (PD), N patients [2, 6]: 12
- Best Response Stable Disease (SD), N patients [2, 6]: 7
- Response Duration Median (range), PR [2, 6]: 6.3 (5.5-6.8) Mo.
- Response Duration Median (range), SD [2, 6]: 3.5 (3-9.2) Mo.
- bestchange (best change of target lesions, Figure 3) ([2]; DOSE_LEV 0): 27.9 and 20.3 and 4.4
- bestchange (best change of target lesions, Figure 3) ([2]; DOSE_LEV 1): 13.1 and 6 and 1.4 and -27.5
- bestchange (best change of target lesions, Figure 3) ([2]; DOSE_LEV 2): -66.7 and 51.2 and 47.1
- bestchange (best change of target lesions, Figure 3) ([2]; DOSE_LEV 3): 18.9 and 4 and 74.8
- bestchange (best change of target lesions, Figure 3) ([2]; DOSE_LEV 4): -43.4 and 50.8 and 41.7
- bestchange (best change of target lesions, Figure 3) ([2]; DOSE_LEV 5): 17.1 and 6.4
- bestchange (best change of target lesions, Figure 3) ([2]; DOSE_LEV 6): -12.9 and -19.4 and 54
- bestchange (best change of target lesions, Figure 3) ([2]; DOSE_LEV 7): 36.2 and 20.5 and 9.7
- bestchange (best change of target lesions, Figure 3) ([2]; DOSE_LEV 8): 23.1 and 10.8 and 5.6 and 0 and -62.5 and 46.6
- bestchange (best change of target lesions, Figure 3) ([2]; DOSE_LEV 9): 7.7 and -50
- Best Response Progressive Disease (PD), N patients ([2]; Prior PARP Inhibitor N=8): 6
- Best Response Stable Disease (SD), N patients ([2]; Prior PARP Inhibitor N=8): 1
- Best Response Partial Response (PR), N patients ([2]; Prior Platinum N=32): 2
- Best Response Progressive Disease (PD), N patients ([2]; Prior Platinum N=32): 18
- Best Response Stable Disease (SD), N patients ([2]; Prior Platinum N=32): 8
- Responses observed, share of patients ([2]; abstract, primarily in patients with defective homologous recombination): 14%
- ORR ([2]; all treated, 4/40, 95% CI: 2.8–23.7): 10%
- ORR ([2]; breast, ovarian, pancreas tumor types, 4/29, 95% CI: 3.9–31.7%): 14%
- time_on_study ([2]; dose_level 0 (50 mg/m^2 Day 1 & 8)): 4.5667 months and 3.9425 months and 2.037 months and 1.8398 months
- time_on_study ([2]; dose_level 1 (100 mg/m^2 Day 1 & 8)): 1.1499 months and 5.5195 months and 3.2526 months
- time_on_study ([2]; dose_level 2 (150 mg/m^2 Day 1 & 8)): 10.4476 months and 1.1828 months and 0.7228 months and 0.6899 months
- partial_response_date (time at which PR was documented) [2, 7]: 1.643
- partial_response_duration [2, 7]: 6.275 months
- time_on_study ([2]; dose_level 3 (200 mg/m^2 Day 1 & 8)): 7.3265 months and 1.1828 months and 0.6899 months and 0.46 months
- time_on_study ([2]; dose_level 4 (250 mg/m^2 Day 1 & 8)): 14.7187 months and 1.8398 months and 1.807 months
- partial_response_date (time at which PR was documented) [2, 8]: 6.407
- partial_response_duration [2, 8]: 8.246 months
- time_on_study ([2]; dose_level 5 (325 mg/m^2 Day 1 & 8)): 1.2485 months and 1.1828 months and 1.0185 months
- time_on_study ([2]; dose_level 6 (475 mg/m^2 Day 1 & 8)): 11.039 months and 3.8768 months and 1.8398 months
- time_on_study ([2]; dose_level 7 (325 mg/m^2 Day 1, 8 & 15)): 1.8398 months and 1.807 months and 0.8871 months
- time_on_study ([2]; dose_level 8 (475 mg/m^2 Day 1, 8 & 15)): 10.809 months and 7.3922 months and 2.1355 months and 2.0698 months and 0.9199 months
- partial_response_date (time at which PR was documented) [2, 9]: 3.45
- partial_response_duration [2, 9]: 6.801 months
- time_on_study ([2]; dose_level 9 (650 mg/m^2 Day 1, 8 & 15)): 7.8193 months and 2.9897 months and 1.6099 months and 1.577 months and 1.0185 months
- partial_response_date (time at which PR was documented) [2, 10]: 1.708
- partial_response_duration [2, 10]: 5.487 months
- objective responses in patients who had received prior platinum ([2]; in vivo): 2/32
- patients with durable SD (≥6 months) ([2]; of 11 SD): 4
- Objective response (all PR), patients ([2]; of 32 evaluable patients, best response in target lesions): 4
- shrinkage in target lesions ([2]; one patient, gBRCA2-related pancreatic cancer, best response SD): 13%
- best response ([2]; one patient, metastatic breast cancer, germline PALB2 frameshift mutation): confirmed PR
- DNA damage (γ-H2AX) in the presence of UVA [3]: synergistically increased; also recorded: markedly increased
- dose-limiting toxicities (kind) [4]: palmar–plantar erythrodysesthesia and phototoxicity
- dose recommended for further study ([4]; intravenously once every 3 weeks (q3w)): 170 mg/m^2
